Assay results taken from US20260158177A1, “COMPOUNDS SPECIFIC TO GRANZYME B AND USES THEREOF” (CYTOSITE BIOPHARMA INC., priority 2021, published 2026).
Numbered stars: 1 amine (or outer) side, 2 acyl side, 3 side chain; on linkers, the order of the positions; unused ones are H or OH. Square brackets hold non-standard residues; d marks the D form. Peptide text beside a SMILES is read from it. * marks the point of attachment. X2 = O=C1CN2CCN(CCN(CC3CCN(CC(=O)*)CC3)CC2)CC(=O)[O][Al]([F])[O]1; NOTA(AlF) = O=C1CN2CCN(CCN(CC(=O)*)CC2)CC(=O)[O][Al]([F])[O]1; Haic = O=C1[C@@H](N[*:1])CCc2cccc3c2N1[C@H](C(=O)[*:2])C3; NH(5-HO-2-oxo-oxolan-4-yl) = O=C1CC(N*)C(O)O1; X1 = O=C(CN1CCN([*:1])CC1)[*:2]

Columns and labels:
[1] = molecular target: T1, granzyme B (Human lymphocytes) (Homo sapiens, UniProt P10144); test: In vivo PET/CT imaging of ^18F-granzyme B tracers in a Matrigel mouse model of active and pro-form granzyme B; conditions: female nude athymic mice with granzyme B/Matrigel implants, iv ^18F-radiotracer, PET 75-minutes post-injection
T1 construct: Matrigel Mouse Model of Active and Pro-Form Granzyme B; purchased Enzo Life Sciences; host or cells: human lymphocytes
Protocol: Female nude athymic (5-6 weeks, 15-30 g) mice were purchased from Jackson Laboratories. Both granzyme B (Human lymphocytes, Enzo Life Sciences) and inactivated human pro-form granzyme B (R&D Systems) were also commercially purchased. […] Each granzyme B enzyme was then brought up to a final concentration of 0.05 μg/ul using phosphate buffered saline (GE, Hyclone). Matrigel (65 μl, Corning) was mixed with 15 μl of 0.75 μg of each granzyme B enzyme (granzyme B and pro-form granzyme B) within each Eppendorf tube. The mice were then anesthetized with 2.5-3% isoflurane mixed with oxygen. Approximately 60-80 μl of granzyme B/Matrigel or the pro-form granzyme B/Matrigel were then injected using a 28-gauge X 0.5-inch insulin syringe (Terumo) to form implants on the right and left shoulder flanks of the mice. Approximately five minutes later, the mice were administered the ^18F-radiotracer via a bolus intravenous injection (approximately 150 μCi in a total volume of 100 ul saline plus an additional ˜25 ul saline to flush the catheter line). After the radiotracer injection, the catheter was removed and measured for any remaining residual radioactivity. The mice were then placed back in their cage for recovery. A nanoScan® PET/CT (Mediso, Hungary) was used for micro-PET/CT imaging in which 15-minute static PET scans were conducted 75-minutes post-injection of the radiotracer. Tera-Tomo™ 3D PET iterative reconstruction along with scatter correction were then conducted post-acquisition. A short high-resolution computed tomography (CT) scan was also performed immediately after to allow for anatomical registration. PET signal in the granzyme B implants were quantified by manually drawing regions of interest (ROIs) over the Matrigel implants based on the fused PET/CT images and the corresponding activity values were determined with VivoQuant (Invicro, Massachusetts). All values were represented as % injected dose per gram (% ID/g). Target to background ratios (TBR's) were then calculated by dividing the granzyme B % ID/g value by the pro-form granzyme B % ID/g value. PET imaging timepoints and granzyme B concentrations used in these experiments were determined in previous studies (data not shown).

[2] = Radioactive metabolite screening in male CD-1 mouse urine by radiometric HPLC; assay type: in vivo, male CD-1 mice; conditions: for 60 minutes (% parent in urine): male CD-1 mouse urine, 60 minutes post tail vein injection, n=3; for radiometabolites in urine: mice, urine at 60 min post dose
Protocol: Radioactive metabolite screening studies were performed by injection of [18F] granzyme B tracers in male CD-1 mice followed by analysis of urine samples at 60 minutes by radiometric HPLC.
Briefly, male CD-1 mice were anesthetized prior to dosing with approximately 250 μCi [^18F] granzyme B tracer via tail vein injection (n=3 mice). Urine samples were collected at the 60 minutes post-injection following anesthesia and cervical dislocation. Samples were diluted 100-fold in water prior to injection by HPLC.
Diluted samples were then analyzed on an Agilent 1290 series UPLC UV coupled with a BGO coincidence detector. The HPLC method utilized either 1) Phenomenex Kinetex EVO C18 (150×2.1 mm, 1.7 micron); 100 μL injection volume; flow-rate: 0.5 mL/min; solvent for A: 0.1% formic acid in water; solvent for B: 100% acetonitrile; gradient: initial hold at 5% B hold for 1 min, 5% to 40% in 7 min, hold 40% B for 2 min, increase from 40% to 95% B in 1 min, hold 95% B for 2 min, and then return to 5% B to reequilibrate, or 2) Phenomenex Monolithic C18 (100×4.6 mm); 100 μL injection volume; flow-rate: 1.2 mL/min; solvent for A: 20 mM ammonium acetate in water; solvent for B: 100% methanol; gradient: same as above.

T1 sequence (P10144 21-247): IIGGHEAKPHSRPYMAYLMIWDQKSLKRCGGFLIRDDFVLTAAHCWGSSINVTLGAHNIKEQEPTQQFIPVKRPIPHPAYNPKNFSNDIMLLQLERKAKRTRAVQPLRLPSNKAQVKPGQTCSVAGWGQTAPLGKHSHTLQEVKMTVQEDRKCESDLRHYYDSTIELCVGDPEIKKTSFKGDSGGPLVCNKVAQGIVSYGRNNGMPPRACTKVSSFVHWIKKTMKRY

SMILES | in vivo imaging activity [1] | 60 minutes (% parent in urine) [2] | radiometabolites in urine [2]
CC[C@H](C)[C@H](NC(=O)CNC(=O)CNC(=O)[C@H](CCC(=O)O)NC(=O)CN1CCC(CN2CCN3CCN(CC2)CC(=O)[O][Al]([F])[O]C(=O)C3)CC1)C(=O)N[C@H]1CCc2cccc3c2N(C1=O)[C@H](C(=O)NC1CC(=O)OC1O)C3 (stereo partly shown) [18F-2-Al] (X2-EGGI[Haic]-{NH(5-HO-2-oxo-oxolan-4-yl)}) | good imaging activity | – | –
CC[C@H](C)[C@H](NC(=O)CCNC(=O)CCNC(=O)CN(CC(=O)O)C(=O)CN1CCC(CN2CCN3CCN(CC2)CC(=O)[O][Al]([F])[O]C(=O)C3)CC1)C(=O)N[C@H]1CCc2cccc3c2N(C1=O)[C@H](C(=O)NC1CC(=O)OC1O)C3 (stereo partly shown) [18F-5-Al] | – | 100% | –
CC[C@H](C)[C@H](NC(=O)CCNC(=O)CC[C@H](NC(=O)CN1CCC(CN2CCN3CCN(CC2)CC(=O)[O][Al]([F])[O]C(=O)C3)CC1)C(=O)O)C(=O)N[C@H]1CCc2cccc3c2N(C1=O)[C@H](C(=O)NC1CC(=O)OC1O)C3 (stereo partly shown) [18F-6-Al] | – | 66.3% | –
CC[C@H](C)[C@H](NC(=O)CNC(=O)CNC(=O)[C@H](CCC(=O)O)NC(=O)CN1CCN(C(=O)CN2CCN3CCN(CC2)CC(=O)[O][Al]([F])[O]C(=O)C3)CC1)C(=O)N[C@H]1CCc2cccc3c2N(C1=O)[C@H](C(=O)NC1CC(=O)OC1O)C3 (stereo partly shown) [18F-8-Al] ({NOTA(AlF)}-[X1]EGGI[Haic]-{NH(5-HO-2-oxo-oxolan-4-yl)}) | good imaging activity | – | –
CC[C@H](C)[C@H](NC(=O)CCNC(=O)CCNC(=O)[C@@H](CCC(=O)O)NC(=O)CN1CCC(CN2CCN3CCN(CC2)CC(=O)[O][Al]([F])[O]C(=O)C3)CC1)C(=O)N[C@H]1CCc2cccc3c2N(C1=O)[C@H](C(=O)NC1CC(=O)OC1O)C3 (stereo partly shown) [Compound ^18F-1-Al] | good imaging activity | 100% | no radiometabolites were observed
CC[C@H](C)[C@H](NC(=O)CCNC(=O)CN(CC(=O)O)C(=O)CCNC(=O)CN1CCC(CN2CCN3CCN(CC2)CC(=O)[O][Al]([F])[O]C(=O)C3)CC1)C(=O)N[C@H]1CCc2cccc3c2N(C1=O)[C@H](C(=O)NC1CC(=O)OC1O)C3 (stereo partly shown) [Compound ^18F-3-Al] | good imaging activity | 100% | no radiometabolites were observed
CC[C@H](C)[C@H](NC(=O)COCCNC(=O)[C@@H](CCC(=O)O)NC(=O)[C@@H](CCC(=O)O)NC(=O)CN1CCC(CN2CCN3CCN(CC2)CC(=O)[O][Al]([F])[O]C(=O)C3)CC1)C(=O)N[C@H]1CCc2cccc3c2N(C1=O)[C@H](C(=O)NC1CC(=O)OC1O)C3 (stereo partly shown) [Compound ^18F-4-Al] | good imaging activity | 100% | no radiometabolites were observed
CC[C@H](C)[C@H](NC(=O)COCCNC(=O)[C@@H](CCC(=O)O)NC(=O)[C@@H](CCC(=O)O)NC(=O)CN1CCN(C(=O)CN2CCN3CCN(CC2)CC(=O)[O][Al]([F])[O]C(=O)C3)CC1)C(=O)N[C@H]1CCc2cccc3c2N(C1=O)[C@H](C(=O)NC1CC(=O)OC1O)C3 (stereo partly shown) [Compound ^18F-10-Al] | good imaging activity | – | –
CC[C@H](C)[C@H](NC(=O)CCNC(=O)CCNC(=O)[C@@H](CCC(=O)O)NC(=O)CN1CCN(C(=O)CN2CCN3CCN(CC2)CC(=O)[O][Al]([F])[O]C(=O)C3)CC1)C(=O)N[C@H]1CCc2cccc3c2N(C1=O)[C@H](C(=O)NC1CC(=O)OC1O)C3 (stereo partly shown) [Compound ^18F-12-Al] | good imaging activity | – | –
CC[C@H](C)[C@H](NC(=O)CCNC(=O)CCNC(=O)CN(CC(=O)O)C(=O)CN1CCN(C(=O)CN2CCN3CCN(CC2)CC(=O)[O][Al]([F])[O]C(=O)C3)CC1)C(=O)N[C@H]1CCc2cccc3c2N(C1=O)[C@H](C(=O)NC1CC(=O)OC1O)C3 (stereo partly shown) [Compound ^18F-13-Al] | good imaging activity | – | –
